Reference: US11260012B2, “Preserved silk protein fragment compositions and articles manufactured therefrom” (Evolved By Nature, Inc., priority 2015, dated 2022)

Tests used:
[1] = Gel formation with vitamin C derivatives; type: physicochemical; conditions: for time to gel formation: 100 mg vitamin C derivative in 15 mL of 2% silk solution
Experimental: The Tables in FIGS. 89A-89B summarize embodiments of gels of the present disclosure. Ascorbic acid-2-glucoside was the most successful vitamin C derivative at gel formation with gel being formed in a 2% silk solution in 3 days. […] In all cases 100 mg of vitamin C derivative was mixed in 15 mL of 2% silk solution, and all gels had the same appearance as gels created with ascorbic acid.
Gels were also cast with combinations of two vitamin C options. In each case, at least one of the vitamin C options was known to cause gelation (L-ascorbic acid or ascorbic acid-2-glucoside). All combination gels were able to gel at 1% total vitamin C additive concentration. […] Without wishing to be bound by theory, it appears there is a relationship between vitamin C concentration, silk concentration, and gelation. An increase in vitamin C at a given concentration of silk will result in a longer time to gelation or inhibit gelation. This may be due to the vitamin C molecule physically blocking interaction between silk protein fragments or cross-linking of silk protein. Modification to pH may allow additional concentrations of vitamin C and derivatives thereof to be added.
Ascorbyl tetraisopalmitate is a highly viscous, oil soluble liquid that might need the help of an emulsifier to possible dissolve in aqueous silk solution.

[2] = tested on: C. albicans and A. brasiliensis; assay: Challenge testing of preservative effect, antifungal (Method A or Method B); type: cell-based
Experimental: Challenge testing of various compositions of the present disclosure to determine preservative effects was performed using the following methods: (1) Method A or (2) Method B. As used herein, a “count” refers to a typical measurement for measuring microbial (i.e., bacterial and fungal) growth.
Method B: • (1) Bacteria were evaluated and were considered to meet a threshold requirement by the following parameters: (i) […] measured no less than 3 log reduction from the initial calculated count after an incubation period of 14 days (i.e., 2 weeks), and (ii) bacteria measured no increase from an incubation period starting at the 14 day count and lasting until the 28 day count (i.e., 2 week incubation period of a 4 week/1 month experiment). • (2) C. albicans was evaluated and considered to meet a threshold requirement by the following parameters: (i) […] measured no less than a 1 log reduction after a 14 day incubation period, and (ii) C. albicans measured no increase from an incubation period starting at the 14 day count and lasting until the to the 28 day count (i.e., 2 week incubation period of a 4 week/1 month experiment). • (3) A. brasiliensis was evaluated and considered to meet a threshold requirement by the following parameters: A. brasiliensis measured no increase from the initial calculated count after an incubation period of 14 days (i.e., a 2 week incubation) and an incubation period of 28 days (i.e., a 4 week/1 month incubation).
Using Method A described above, if the formulation meets the requirements defined under Method A, the microbiological risk is considered to be tolerable (the cosmetic product is protected against microbial proliferation that may present a potential risk for the user) and the cosmetic product is deemed to meet the requirements of this International Standard without additional rationale.
For example, the pump is considered a protective device for risk reduction, i.e., prevention against bacterial and/or fungal growth.

[3] = HPLC chromatograms of vitamin C degradation, aged silk films vs unstabilized vitamin C; type: physicochemical; conditions: after 1 hour at ambient conditions without chemical stabilization
Experimental: FIGS. 36A and 36B show two HPLC chromatograms from samples comprising vitamin C. […] No degradation products were visible. FIG. 59 is a table summarizing the vitamin C concentration in silk protein fragment-films (2% silk films air dried at RT) of the present disclosure. In FIG. 59 processing conditions included 100° C. extraction for 20 min, RT rinse, LiBr in 60° C. oven for 4-6 hours. FIG. 60 is a table summarizing the stability of vitamin C in chemically stabilized solutions. FIGS. 89A-89B are tables summarizing vitamin C stability in SPF gels without chemical stabilizers as compared to chemically stabilized vitamin C in competitive anti-aging skincare products. […] Without wishing to be bound by theory, it appears there is a relationship between vitamin C concentration, silk concentration, and gelation. An increase in vitamin C at a given concentration of silk will result in a longer time to gelation or inhibit gelation. This may be due to the vitamin C molecule physically blocking interaction between silk protein fragments or cross-linking of silk protein.

[4] = in USSSC formulation, concentration of 0.1%

Structure (SMILES): CCCCCCCCC(CCCCCC)C(=O)OC[C@H](OC(=O)C(CCCCCC)CCCCCCCC)[C@H]1OC(=O)C(OC(=O)C(CCCCCC)CCCCCCCC)=C1OC(=O)C(CCCCCC)CCCCCCCC (stereo partly drawn) [Ascorbyl tetraisopalmitate, Ascorbyl Tetraisopalmitate]
- ability to dissolve or disperse in aqueous silk solution [1]: unable to dissolve or be dispersed

Structure (SMILES): O=C1O[C@H]([C@@H](O)CO)C([O-])=C1OP(=O)([O-])[O-].[Na+].[Na+].[Na+] [Sodium ascorbyl phosphate from Aromantic, Sodium Ascorbyl Phosphate]
- time to gel formation [1]: failed to create a gel

Structure (SMILES): COc1ccc(C(=O)[O-])cc1.[Na+] [Sodium anisate]
- antifungal preservative effectiveness ([2]; in SER formulation, folded in after gelation, 0.5-1.0%, pH of ˜5.2-5.9, with lemongrass or rosehip oil): effective antifungal preservative
- antifungal preservative effectiveness ([2]; in SSC formulation, folded in after gelation, 0.1-1.0% and pH of 4.2-5.9): effective antifungal preservative
- antifungal preservative effectiveness ([2]; in USSSC formulation, folded in after gelation, 0.5-1.0% and pH of 4.2-5.9): effective antifungal preservative

Structure (SMILES): C/C=C/C=C/C(=O)[O-].[K+] [potassium sorbate]
- antifungal preservative effectiveness [2, 4]: effective antifungal preservatives

Structure (SMILES): O=C([O-])c1ccccc1.[Na+] [Sodium benzoate]
- antifungal preservative effectiveness ([2]; in SER formulation, concentration of 0.1% and pH of 3.28): effective antifungal preservative
- antifungal preservative effectiveness ([2]; in SSC formulation, concentration of 0.1% and pH of 3.7 and 4.2): effective antifungal preservative
- antifungal preservative effectiveness [2, 4]: effective antifungal preservatives

Structure (SMILES): O=C1O[C@H]([C@@H](O)CO)C(O)=C1O[C@H]1O[C@H](CO)[C@@H](O)[C@H](O)[C@H]1O [Ascorbic acid-2-glucoside, Ascorbic Acid-2-Glucoside]
- time to gel formation [1]: 3 days

Structure (SMILES): O=C1O[C@H]([C@@H](O)CO)C(O)=C1O [vitamin C, L-ascorbic acid]
- vitamin C degradation products in HPLC chromatogram [3]: degradation products are visible

Structure (SMILES): O=C1O[C@H]([C@@H](O)CO)C([O-])=C1OP(=O)([O-])[O-].[Na+].[Na+].[Na+] [Sodium ascorbyl phosphate from DSM supplier]
- time to gel formation [1]: 28 days
